“And” between values parts separate entries of the source, which are not always exact repeats. Equal entries are not always repeated.
Columns and labels:
[1] = test system: children undergoing tonsillectomy; experiment: Respiratory depression and prolonged PACU stay due to RD by ABCB1 genotype (Example 7)
Description: Children 6-15 years undergoing elective outpatient tonsillectomy were eligible for the study and recruited on the day of surgery. […] Clinical criteria for OSA designation included sleep disordered breathing with a history of snoring and either sleep pauses lasting more than 10 seconds or daytime drowsiness. Children were excluded from the study if they or their parents were non-English speaking.
All participants received standard perioperative care. Anesthesia was induced using sevoflurane followed by a propofol (2 mg/kg) bolus to facilitate endotracheal intubation. Anesthesia was maintained with sevoflurane without the use of neuromuscular blockade. […] All children receive prophylactic ondansetron (0.1 mg/kg) and dexamethasone (0.1 mg/kg) intraoperatively.
Duration of PACU stay (time to achieve PACU discharge readiness) was defined as the duration in PACU before achieving the following discharge criteria. […] This is discharge readiness time is different from actual PACU discharge time as delays due to social reasons (e.g. waiting for car rides) were not included.
Metrics for analgesic effectiveness and opioid-related adverse effects were recorded for each participant. For the metrics for opioid-related adverse effects, this study focused on two clinically and economically important outcomes: clinical RD and prolonged PACU stay (>90 minutes) secondary to respiratory depression assessed consistently by the research coordinator.
Blood was collected from each participant in the operating room under anesthesia and the DNA was isolated the same day and stored at −20 degree Celsius. Batched genotyping was performed after clinical data was entered on all study participants. The TaqMan allelic discrimination system assays and Genotyper Softerware Version 1.0.1 (Life Technologies, Applied Biosystems, Forest City, Calif.) were used to analyse and report the following ABCB1 polymorphisms: rs1045642, rs2032582, rs1128503, rs2229109, and rs9282564.
Prior to analysis, data qualities were examined. For the ABCB1 variants, allelic and genotype frequencies were assessed in white and black patients separately, and Hardy Weinberg equilibrium (HWE) was tested. To analyze binary outcomes (RD, prolonged PACU secondary to RD and analgesic intervention need), logistic regression was performed. […] Thus, maximum FLACC scores were analyzed using a zero-inflated negative binomial model to appropriately capture the distribution of this variable. […] To select the best fitting model, log likelihood, Akaike and Bayesian Information criterion were compared, and residuals were examined. […] To assess the single SNP association with the outcomes, additive models were used, in which the genotypes were recoded and tested as continuous variables. For the four bi-allelic SNPs, genotypes were recoded to 0, 1 and 2 according to the number of minor alleles. For rs2032582, GG genotype was recoded as 0; GA and GT genotypes were combined and recoded as 1, and TT and TA genotypes as 2. Statistical modeling was conducted with white and black patients separately and combined. When races were combined, the effects of race and race*SNP interaction were tested.

[2] = test system: children undergoing tonsillectomy; experiment: Opioid-related adverse effects and PACU stay by sex, age and morphine dose (Example 6)
Description: This was a prospective clinical observational study using a standard perioperative anesthetic and surgical practices and standard postoperative nursing care within the tonsillectomy population.
Clinical criteria for OSA designation included sleep disordered breathing with a history of snoring and either sleep pauses lasting more than 10 seconds or daytime drowsiness. Children were excluded from the study if they or their parents were non-English speaking.
As part of T/TA standard practice at this institution, all children receive prophylactic ondansetron (0.1 mg/kg) and dexamethasone (0.1 mg/kg) intraoperatively. Anesthesia is induced via sevoflurane inhaled induction followed by a propofol (2 mg/kg) bolus to facilitate endotracheal intubation. Anesthesia was maintained with sevoflurane without the use of neuromuscular blockade.
Adverse effects were measured by two sets of binary outcomes: 1) opioid-related side effects including RD, nausea/vomiting (PONV) and pruritus; 2) prolonged PACU stay secondary to respiratory depression or nausea/vomiting.
Duration of PACU stay (time to achieve PACU discharge readiness) was defined as the duration in PACU before achieving the following discharge criteria. […] This discharge readiness time is different from actual PACU discharge time as delays due to social reasons (e.g. waiting for car ride, etc.) were not included.
Prior to analyses, data quality was examined. […] To assess the sex effect, outcome measurements were first compared between boys and girls with and without OSA stratification. Continuous variables were compared using t-test or Wilcoxon rank-sum test and categorical variables were compared using Fisher's exact test.
Effects of age, weight, BMI z scores, and OSA were also tested as covariates for all the outcomes. When significant effects were detected (p<0.05), covariates were included in the final models. Binary outcomes were analyzed using logistic regression. Maximum NRS was analyzed using linear regression. Maximum FLACC score was analyzed by using a zero-inflated negative binomial model because of the inflated frequency of score 0. The total number of analgesic interventions followed a Poisson distribution and was analyzed using a generalized linear model.

[3] = F, total morphine 0.2-<0.3 mg/kg
[4] = M, total morphine 0.2-<0.3 mg/kg
[5] = girls 8-13 years, total morphine <0.3 mg/kg
[6] = girls 8-13 years, total morphine >=0.3 mg/kg
[7] = girls <8 years, total morphine <0.3 mg/kg
[8] = girls <8 years, total morphine >=0.3 mg/kg
[9] = girls >13 years, total morphine <0.3 mg/kg
[10] = girls >13 years, total morphine >=0.3 mg/kg

SMILES: CN1CC[C@]23c4c5ccc(O)c4O[C@H]2[C@@H](O)C=C[C@H]3[C@H]1C5 [morphine]
- patients with RD ([1]; 263 patients): 19%
- patients with prolonged PACU stay due to RD ([1]; 263 patients): 11%
- Prolonged PACU due to RD % ([1]; Blacks, ABCB1 rs1045642 CC, N=27): 7%
- Prolonged PACU due to RD % ([1]; Blacks, ABCB1 rs1045642 TC, N=14): 21%
- Prolonged PACU due to RD % ([1]; Blacks, ABCB1 rs1045642 TT, N=3): 33%
- Prolonged PACU due to RD % ([1]; Blacks, ABCB1 rs1128503 CC, N=24): 8%
- Prolonged PACU due to RD % ([1]; Blacks, ABCB1 rs1128503 TC, N=18): 17%
- Prolonged PACU due to RD % ([1]; Blacks, ABCB1 rs1128503 TT, N=2): 50%
- Prolonged PACU due to RD % ([1]; Blacks, ABCB1 rs2032582 GA, N=1): 0%
- Prolonged PACU due to RD % ([1]; Blacks, ABCB1 rs2032582 GG, N=35): 11%
- Prolonged PACU due to RD % ([1]; Blacks, ABCB1 rs2032582 GT, N=8): 25%
- Prolonged PACU due to RD % ([1]; Blacks, ABCB1 rs2229109 CA, N=1): 0%
- Prolonged PACU due to RD % ([1]; Blacks, ABCB1 rs2229109 CC, N=43): 14%
- Prolonged PACU due to RD % ([1]; Blacks, ABCB1 rs9282564 AA, N=41): 10%
- Prolonged PACU due to RD % ([1]; Blacks, ABCB1 rs9282564 GA, N=3): 67%
- Prolonged PACU due to RD % ([1]; Whites, ABCB1 rs1045642 CC, N=49): 4%
- Prolonged PACU due to RD % ([1]; Whites, ABCB1 rs1045642 TC, N=100): 15%
- Prolonged PACU due to RD % ([1]; Whites, ABCB1 rs1045642 TT, N=70): 10%
- Prolonged PACU due to RD % ([1]; Whites, ABCB1 rs1128503 CC, N=70): 9%
- Prolonged PACU due to RD % ([1]; Whites, ABCB1 rs1128503 TC, N=102): 13%
- Prolonged PACU due to RD % ([1]; Whites, ABCB1 rs1128503 TT, N=47): 11%
- Prolonged PACU due to RD % ([1]; Whites, ABCB1 rs2032582 GA, N=7): 0%
- Prolonged PACU due to RD % ([1]; Whites, ABCB1 rs2032582 GG, N=65): 9%
- Prolonged PACU due to RD % ([1]; Whites, ABCB1 rs2032582 GT, N=100): 14%
- Prolonged PACU due to RD % ([1]; Whites, ABCB1 rs2032582 TA, N=1): 0%
- Prolonged PACU due to RD % ([1]; Whites, ABCB1 rs2032582 TT, N=46): 9%
- Prolonged PACU due to RD % ([1]; Whites, ABCB1 rs2229109 CA, N=14): 14%
- Prolonged PACU due to RD % ([1]; Whites, ABCB1 rs2229109 CC, N=205): 11%
- Prolonged PACU due to RD % ([1]; Whites, ABCB1 rs9282564 AA, N=171): 8%
- Prolonged PACU due to RD % ([1]; Whites, ABCB1 rs9282564 GA, N=46): 20%
- Prolonged PACU due to RD % ([1]; Whites, ABCB1 rs9282564 GG, N=2): 100%
- PONV, number of cases ([2]; F, All): 22
- PONV, proportion ([2]; F, All): (10%)
- Prolonged stay in PACU due to PONV, proportion ([2]; F, All): (5%)
- Prolonged stay in PACU due to RD, number of cases ([2]; F, All): 11
- Prolonged stay in PACU due to RD, proportion ([2]; F, All): (5%)
- Pruritus, number of cases ([2]; F, All): 88
- Pruritus, proportion ([2]; F, All): (41%)
- RD, proportion ([2]; F, All): (9%)
- PONV, number of cases ([2]; F, OSA No): 11
- PONV, proportion ([2]; F, OSA No): (9%)
- Prolonged stay in PACU due to PONV, proportion ([2]; F, OSA No): (2%)
- Prolonged stay in PACU due to RD, number of cases ([2]; F, OSA No): 5
- Prolonged stay in PACU due to RD, proportion ([2]; F, OSA No): (4%)
- Pruritus, number of cases ([2]; F, OSA No): 41
- Pruritus, proportion ([2]; F, OSA No): (33%)
- RD, number of cases ([2]; F, OSA No): 9
- RD, proportion ([2]; F, OSA No): (7%)
- PONV, number of cases ([2]; F, OSA Yes): 11
- PONV, proportion ([2]; F, OSA Yes): (12%)
- Prolonged stay in PACU due to PONV, proportion ([2]; F, OSA Yes): (8%)
- Prolonged stay in PACU due to RD, number of cases ([2]; F, OSA Yes): 6
- Prolonged stay in PACU due to RD, proportion ([2]; F, OSA Yes): (6%)
- Pruritus, number of cases ([2]; F, OSA Yes): 47
- Pruritus, proportion ([2]; F, OSA Yes): (50%)
- RD, proportion ([2]; F, OSA Yes): (12%)
- PONV, number of cases (%) [2, 3]: 8 (16)
- Prolonged stay in PACU due to PONV, number of cases (%) [2, 3]: 3 (6)
- Prolonged stay in PACU due to RD, number of cases (%) [2, 3]: 1 (2)
- Pruritus, number of cases (%) [2, 3]: 42 (84)
- PONV, number of cases (%) ([2]; F, total morphine <0.2 mg/kg): 4 (10)
- Prolonged stay in PACU due to PONV, number of cases (%) ([2]; F, total morphine <0.2 mg/kg): 2 (5)
- Prolonged stay in PACU due to RD, number of cases (%) ([2]; F, total morphine <0.2 mg/kg): 2 (5)
- Pruritus, number of cases (%) ([2]; F, total morphine <0.2 mg/kg): 29 (73)
- PONV, number of cases (%) ([2]; F, total morphine ≥0.3 mg/kg): 10 (43)
- Prolonged stay in PACU due to PONV, number of cases (%) ([2]; F, total morphine ≥0.3 mg/kg): 5 (22)
- Prolonged stay in PACU due to RD, number of cases (%) ([2]; F, total morphine ≥0.3 mg/kg): 8 (35)
- Pruritus, number of cases (%) ([2]; F, total morphine ≥0.3 mg/kg): 17 (74)
- RD, number of cases (%) ([2]; F, total morphine ≥0.3 mg/kg): 12 (52)
- PONV, number of cases ([2]; M, All): 14
- PONV, proportion ([2]; M, All): (6%)
- Prolonged stay in PACU due to PONV, proportion ([2]; M, All): (4%)
- Prolonged stay in PACU due to RD, number of cases ([2]; M, All): 13
- Prolonged stay in PACU due to RD, proportion ([2]; M, All): (6%)
- Pruritus, number of cases ([2]; M, All): 79
- Pruritus, proportion ([2]; M, All): (36%)
- RD, proportion ([2]; M, All): (8%)
- PONV, number of cases ([2]; M, OSA No): 7
- PONV, proportion ([2]; M, OSA No): (6%)
- Prolonged stay in PACU due to PONV, proportion ([2]; M, OSA No): (5%)
- Prolonged stay in PACU due to RD, number of cases ([2]; M, OSA No): 8
- Prolonged stay in PACU due to RD, proportion ([2]; M, OSA No): (6%)
- Pruritus, number of cases ([2]; M, OSA No): 51
- Pruritus, proportion ([2]; M, OSA No): (41%)
- RD, number of cases ([2]; M, OSA No): 12
- RD, proportion ([2]; M, OSA No): (10%)
- PONV, number of cases ([2]; M, OSA Yes): 7
- PONV, proportion ([2]; M, OSA Yes): (7%)
- Prolonged stay in PACU due to PONV, proportion ([2]; M, OSA Yes): (2%)
- Prolonged stay in PACU due to RD, number of cases ([2]; M, OSA Yes): 5
- Prolonged stay in PACU due to RD, proportion ([2]; M, OSA Yes): (5%)
- Pruritus, number of cases ([2]; M, OSA Yes): 28
- Pruritus, proportion ([2]; M, OSA Yes): (30%)
- RD, number of cases ([2]; M, OSA Yes): 6
- RD, proportion ([2]; M, OSA Yes): (6%)
- PONV, number of cases (%) [2, 4]: 7 (15)
- Prolonged stay in PACU due to PONV, number of cases (%) [2, 4]: 3 (6)
- Prolonged stay in PACU due to RD, number of cases (%) [2, 4]: 3 (6)
- Pruritus, number of cases (%) [2, 4]: 35 (76)
- RD, number of cases (%) [2, 4]: 6 (13)
- PONV, number of cases (%) ([2]; M, total morphine <0.2 mg/kg): 6 (18)
- Prolonged stay in PACU due to PONV, number of cases (%) ([2]; M, total morphine <0.2 mg/kg): 4 (12)
- Prolonged stay in PACU due to RD, number of cases (%) ([2]; M, total morphine <0.2 mg/kg): 5 (15)
- Pruritus, number of cases (%) ([2]; M, total morphine <0.2 mg/kg): 24
- RD, number of cases (%) ([2]; M, total morphine <0.2 mg/kg): 4 (12)
- PONV, number of cases (%) ([2]; M, total morphine ≥0.3 mg/kg): 1 (4)
- Prolonged stay in PACU due to PONV, number of cases (%) ([2]; M, total morphine ≥0.3 mg/kg): 1 (4)
- Prolonged stay in PACU due to RD, number of cases (%) ([2]; M, total morphine ≥0.3 mg/kg): 5 (20)
- Pruritus, number of cases (%) ([2]; M, total morphine ≥0.3 mg/kg): 20 (80)
- RD, number of cases (%) ([2]; M, total morphine ≥0.3 mg/kg): 8 (32)
- PONV, number of cases (%) [2, 5]: 2 (5)
- Prolonged stay in PACU due to PONV, number of cases (%) [2, 5]: 2 (5)
- Prolonged stay in PACU due to RD, number of cases (%) [2, 5]: 1 (2)
- Respiratory depression (RD), number of cases (%) [2, 5]: 4 (9)
- PONV, number of cases (%) [2, 6]: 1 (11)
- Prolonged stay in PACU due to PONV, number of cases (%) [2, 6]: 1 (11)
- Prolonged stay in PACU due to RD, number of cases (%) [2, 6]: 3 (33)
- Respiratory depression (RD), number of cases (%) [2, 6]: 5 (56)
- PONV, number of cases (%) [2, 7]: 7 (19)
- Prolonged stay in PACU due to PONV, number of cases (%) [2, 7]: 2 (5)
- Prolonged stay in PACU due to RD, number of cases (%) [2, 7]: 2 (5)
- Respiratory depression (RD), number of cases (%) [2, 7]: 3 (8)
- PONV, number of cases (%) [2, 8]: 6 (60)
- Prolonged stay in PACU due to PONV, number of cases (%) [2, 8]: 4 (40)
- Prolonged stay in PACU due to RD, number of cases (%) [2, 8]: 4 (40)
- Respiratory depression (RD), number of cases (%) [2, 8]: 5 (50)
- PONV, number of cases (%) [2, 9]: 1 (9)
- Prolonged stay in PACU due to PONV, number of cases (%) [2, 9]: 1 (9)
- Prolonged stay in PACU due to RD, number of cases (%) [2, 9]: 0 (0)
- Respiratory depression (RD), number of cases (%) [2, 9]: 1 (9)
- PONV, number of cases (%) [2, 10]: 0 (0)
- Prolonged stay in PACU due to PONV, number of cases (%) [2, 10]: 0 (0)
- Prolonged stay in PACU due to RD, number of cases (%) [2, 10]: 1 (25)
- Respiratory depression (RD), number of cases (%) [2, 10]: 2 (50)
- probability of all opioid adverse effects except for pruritus ([2]; girls, morphine exceeded 0.3 mg/kg, multivariate models): increased significantly
- duration of stay in PACU ([2]; white boys, <0.3 mg/kg total morphine): 88.3 ± 3.6 min
- duration of stay in PACU ([2]; white boys, ≥0.3 mg/kg total morphine): 99.7 ± 6.4 min
- duration of stay in PACU ([2]; white girls, <0.3 mg/kg total morphine): 82.2 ± 3.3 min
- duration of stay in PACU ([2]; white girls, ≥0.3 mg/kg total morphine, 0.3 mg/kg): 111 ± 6.6 min and 111.1 ± 6.6 min

Source: patent US10878939B2, “Methods and compositions for personalized pain management” (Children's Hospital Medical Center, priority 2014, dated 2020)
